In experiment [1] the test system is human stomach cancer cell line SNU-16 xenograft. Description: Antitumor effect in SNU-16 subcutaneous xenograft model in mice. The settings on record: oral, once a day for 11 days, tumor volume last day. It is filed as in vivo. From the text: Human stomach cancer cell line SNU-16, which had been cultured in an RPMI-1640 medium containing 10% FBS, and penicillin and streptomycin, were adjusted to a concentration of 1×10^8 cells/mL with Hanks' Balanced Salt Solution (GIBCO #24020) to prepare a cell suspension, and the suspension was mixed with […] (BD Biosciences, Cat#354234) in a ratio of 1:1 to prepare a cell suspension in a concentration of 5×10^7 cells/ml. The cell suspension was inoculated in a volume of 100 ut into a subcutaneous part of a right flank of nude mice, 6 to 7 weeks of ages (BALB/cAiel-nu/nu, female, Clea Japan Inc.). Seven days after cell inoculation, the shortest diameter and the longest diameter of a tumor in each mouse were measured by using an electronic digital caliper (Digimatie™ caliper, Mitutoyo Corporation), so as to calculate the volume of the tumor in accordance with the following calculation formula: Tumor volume(mm^3)Longest diameter(mm)×Shortest diameter(mm)×Shortest diameter(mm)/2
(§1) On the basis of the volumes of tumors obtained on the first day of administration, the nude mice were grouped such that averages of the tumor volumes were substantially equal among the groups. Each test substance was dissolved in DMSO, Tween 80 was added thereto to prepare a solution in a 10-fold concentration and the thus prepared solution was stored at the freezer before use. Immediately before the administration, the stock solution was diluted with a 5% glucose solution to obtain a final administration solution (in which a ratio in % among DMSO, Tween 80 and the 5% glucose solution was 3.5:6.5:90). Each evaluation sample was orally administered to test substance administration group at a volume of 0.4 mL per 20 g of body weight once a day continuously for 11 days, and in a control group, an administration solvent was orally administered under the same conditions. Incidentally, the experiment was conducted on groups each consisting of 5 mice.
(§2) With respect to each of the control group and test substance administration group, a ratio of the weight measured on the final day to the weight measured on the first day (relative body weight: RBW) was calculated. If a ratio of the RBW of the test substance administration group/the RBW of the control group is 0.9 or mom, the corresponding test substance administration group was defined as a well-tolerated. In the test substance administration group thus defined as well-tolerated, a ratio of the tumor volume of the test substance-dosing group to the tumor volume of the control group obtained on the last day (TIC) (%) was calculated, and shown in Table 21.

Experiment [2] has as its system human endometrial cancer cell line MFE280 xenograft. The experiment is described as follows: Antitumor effect in MFE280 subcutaneous xenograft model in mice. It is filed as in vivo. The settings on record: oral, once a day for 14 days, tumor volume last day.
Description: Human endometrial cancer cell line MFE280 (DSMZ Number ACC-410), which had been cultured in an RPMI-1640 medium containing 10% FBS, and penicillin and streptomycin, were adjusted to a concentration of 4.7×10^7 cells/mL with Hanks' Balanced Salt Solution (GIBCO 1124020) to prepare a cell suspension, and the suspension was mixed with […] (BD Biosciences, Cat#354234) in a ratio of 1:1 to prepare a cell suspension in a concentration of 2.4×10^7 cells/ml. The cell suspension was inoculated in a volume of 100 μL into a subcutaneous part of a right flank of nude mice, 7 weeks of age (BALB/cAJcl-nu/nu, female, Clea Japan Inc.). Thirty five days after cell inoculation, the shortest diameter and the longest diameter of a tumor in each mouse were measured by using an electronic digital caliper (Digimatic™ caliper, Mitutoyo Corporation), so as to calculate the volume of the tumor in accordance with the following calculation formula: Tumor volume(mm^3)=Longest diameter(mm)×Shortest diameter(mm)×Shortest diameter(mm)/2
as §1, with “fast” for “first”, “14” for “11”
as §2, with “more,” for “mom,”, “28.” for “21.”

Each structure is given as a SMILES string.

For `CNC(=O)n1ccc2cc(Oc3ccnc(NC(=O)c4ccc(C5CCN(CCO)CC5)cc4)c3)c(OCCOC)cc21` [Example 22, 5-((2-(4-(1-(2-Hydroxyethyl)piperidin-4-yl)benzamide)pyridin-4-yl)oxy)-6-(2-methoxyethoxy)-N-methyl-1H-indole-1-carboxamide], the “T/C (%)” value in experiment [1] (6.25 mg/kg) is 49%; in experiment [1] (12.5 mg/kg), 26%; in experiment [1] (25 mg/kg) it was 17%; in experiment [1] (50 mg/kg), 18%; in experiment [2] (6.25 mg/kg), 72%; in experiment [2] (12.5 mg/kg) it was 57%. The figures for the “T/C (%)” value in experiment [2] (25 mg/kg) and in experiment [2] (50 mg/kg) were 31% and 11%, respectively.

Source of the values: patent US8933099B2, “Monocyclic pyridine derivative” (Eisai R&D Management Co., Ltd., priority 2013, dated 2015).
